Measured values from ChEMBL document CHEMBL1131267, “Diastereoselective synthesis of octahydro-14H-benzo[g]quinolino-[2,3-a]quinolidines. Improved cytotoxic activity against human brain tumor cell lines as a result of the increased rigidity of the molecular backbone” (1998).

Test system: A 172
Assay: Compound was evaluated for cytotoxicity against human glioblastoma (A172) cell line
Assay type: functional
Conditions: read-out: LC50 (the source's name)

Row | SMILES | CC50
1 | Cc1ccc2c(c1)C(C)(C)[C@H]1CCN3Cc4ccccc4C[C@H]3[C@H]1N2 | 25 µM
2 | CC1(C)c2ccccc2N[C@@H]2[C@@H]3Cc4ccccc4CN3CC[C@@H]21 | 45 µM
3 | CC1(C)c2cc(Cl)ccc2N[C@@H]2[C@@H]3Cc4ccccc4CN3CC[C@@H]21 | 22 µM
4 | CC1(C)c2cc(C(F)(F)F)ccc2N[C@@H]2[C@@H]3Cc4ccccc4CN3CC[C@@H]21 | 20 µM
5 | COc1ccc2c(c1)C(C)(C)[C@H]1CCN3Cc4ccccc4C[C@H]3[C@H]1N2 | 42 µM
6 | Cc1cccc2c1N[C@@H]1[C@@H]3Cc4ccccc4CN3CC[C@@H]1C2(C)C | 31 µM
7 | C=C(C)[C@H]1CCN2Cc3ccccc3C[C@H]2[C@H]1NCc1ccc(Cl)cc1 | 55 µM

Test system: T98G
Assay: Compound was evaluated for cytotoxicity against human glioblastoma (T98G) cell line
Assay type: functional
Conditions: read-out: LC50 (the source's name)

Row | SMILES | CC50
8 | Cc1ccc2c(c1)C(C)(C)[C@H]1CCN3Cc4ccccc4C[C@H]3[C@H]1N2 | 20 µM
9 | CC1(C)c2ccccc2N[C@@H]2[C@@H]3Cc4ccccc4CN3CC[C@@H]21 | 14 µM
10 | CC1(C)c2cc(Cl)ccc2N[C@@H]2[C@@H]3Cc4ccccc4CN3CC[C@@H]21 | 12 µM
11 | CC1(C)c2cc(C(F)(F)F)ccc2N[C@@H]2[C@@H]3Cc4ccccc4CN3CC[C@@H]21 | 13 µM
12 | COc1ccc2c(c1)C(C)(C)[C@H]1CCN3Cc4ccccc4C[C@H]3[C@H]1N2 | 35 µM
13 | Cc1cccc2c1N[C@@H]1[C@@H]3Cc4ccccc4CN3CC[C@@H]1C2(C)C | 21 µM
14 | C=C(C)[C@H]1CCN2Cc3ccccc3C[C@H]2[C@H]1NCc1ccc(Cl)cc1 | 42 µM

Test system: D283 Med
Assay: Compound was evaluated for cytotoxicity against human medulloblastoma (D283 Med) cell line
Assay type: functional
Conditions: read-out: LC50 (the source's name)

Row | SMILES | CC50
15 | Cc1ccc2c(c1)C(C)(C)[C@H]1CCN3Cc4ccccc4C[C@H]3[C@H]1N2 | 20 µM
16 | CC1(C)c2ccccc2N[C@@H]2[C@@H]3Cc4ccccc4CN3CC[C@@H]21 | 22 µM
17 | CC1(C)c2cc(Cl)ccc2N[C@@H]2[C@@H]3Cc4ccccc4CN3CC[C@@H]21 | 8 µM
18 | CC1(C)c2cc(C(F)(F)F)ccc2N[C@@H]2[C@@H]3Cc4ccccc4CN3CC[C@@H]21 | 17 µM
19 | COc1ccc2c(c1)C(C)(C)[C@H]1CCN3Cc4ccccc4C[C@H]3[C@H]1N2 | 25 µM
20 | Cc1cccc2c1N[C@@H]1[C@@H]3Cc4ccccc4CN3CC[C@@H]1C2(C)C | 20 µM
21 | C=C(C)[C@H]1CCN2Cc3ccccc3C[C@H]2[C@H]1NCc1ccc(Cl)cc1 | 29 µM
